Experiment: xn = mol fraction of the nth substance listed

CC[NH3+].O=[N+]([O-])[O-] + O=[N+]([O-])[O-].O=[N+]([O-])[O-].[Ca+2] + O
100 kPa
Conditions | electrical conductivity [S/m] | viscosity [mPa·s]
223 K, x2 = 0.05128, x3 = 0.1778 | 0.001 | –
233 K, x2 = 0.05128, x3 = 0.1778 | 0.009 | –
233 K, x2 = 0.09755, x3 = 0.3019 | 0.009 | –
243 K, x2 = 0.05128, x3 = 0.1778 | 0.034 | –
243 K, x2 = 0.09755, x3 = 0.3019 | 0.034 | –
253 K, x2 = 0.05128, x3 = 0.1778 | 0.095 | –
253 K, x2 = 0.09755, x3 = 0.3019 | 0.095 | –
263 K, x2 = 0.05128, x3 = 0.1778 | 0.209 | –
263 K, x2 = 0.09755, x3 = 0.3019 | 0.209 | –
273 K, x2 = 0.05128, x3 = 0.1778 | 0.394 | –
273 K, x2 = 0.09755, x3 = 0.3019 | 0.394 | –
283 K, x2 = 0.05128, x3 = 0.1778 | 0.662 | –
283 K, x2 = 0.09755, x3 = 0.3019 | 0.662 | –
288.15 K, x2 = 0.05128, x3 = 0.1778 | – | 131.6
288.15 K, x2 = 0.09755, x3 = 0.3019 | – | 160.5
293 K, x2 = 0.05128, x3 = 0.1778 | 1.02 | –
293 K, x2 = 0.09755, x3 = 0.3019 | 1.02 | –
293.15 K, x2 = 0.05128, x3 = 0.1778 | – | 106.7
293.15 K, x2 = 0.09755, x3 = 0.3019 | – | 127.9
298.15 K, x2 = 0.05128, x3 = 0.1778 | – | 87.1
298.15 K, x2 = 0.09755, x3 = 0.3019 | – | 102.8
303 K, x2 = 0.05128, x3 = 0.1778 | 1.47 | –
303 K, x2 = 0.09755, x3 = 0.3019 | 1.47 | –
303.15 K, x2 = 0.05128, x3 = 0.1778 | – | 71.6
303.15 K, x2 = 0.09755, x3 = 0.3019 | – | 83.2
308.15 K, x2 = 0.05128, x3 = 0.1778 | – | 59.2
308.15 K, x2 = 0.09755, x3 = 0.3019 | – | 67.8
313 K, x2 = 0.05128, x3 = 0.1778 | 2.01 | –
313 K, x2 = 0.09755, x3 = 0.3019 | 2.01 | –
313.15 K, x2 = 0.05128, x3 = 0.1778 | – | 49.3
313.15 K, x2 = 0.09755, x3 = 0.3019 | – | 55.59
323 K, x2 = 0.05128, x3 = 0.1778 | 2.64 | –
323 K, x2 = 0.09755, x3 = 0.3019 | 2.64 | –
333 K, x2 = 0.05128, x3 = 0.1778 | 3.35 | –
333 K, x2 = 0.09755, x3 = 0.3019 | 3.35 | –
343 K, x2 = 0.05128, x3 = 0.1778 | 4.13 | –
343 K, x2 = 0.09755, x3 = 0.3019 | 4.13 | –
353 K, x2 = 0.05128, x3 = 0.1778 | 4.98 | –
353 K, x2 = 0.09755, x3 = 0.3019 | 4.98 | –
363 K, x2 = 0.05128, x3 = 0.1778 | 5.89 | –
363 K, x2 = 0.09755, x3 = 0.3019 | 5.89 | –
373 K, x2 = 0.05128, x3 = 0.1778 | 6.84 | –
373 K, x2 = 0.09755, x3 = 0.3019 | 6.84 | –

CCCCCCCCCCCCCCCC[N+](C)(C)C.[Br-] + OC1OC[C@@H](O)[C@H](O)[C@H]1O + O
viscosity [mPa·s], 100 kPa
Conditions | 298.15 K | 308.15 K | 318.15 K
x1 = 7.21e-06, x2 = 0 | 0.896 | 0.742 | 0.617
x1 = 1.442e-05, x2 = 0 | 0.898 | 0.744 | 0.617
x1 = 2.162e-05, x2 = 0 | 0.9 | 0.745 | 0.617

C[P+](c1ccccc1)(c1ccccc1)c1ccccc1.[Br-] + OCC(O)CO
Conditions | electrical conductivity [S/m] | viscosity [mPa·s]
298 K, 101.3 kPa, x1 = 0.2 | – | 352
298.2 K, 101 kPa, x1 = 0.2 | – | 1894
322.36 K, 101 kPa, x2 = 0.75 | – | 272
327.54 K, 101 kPa, x2 = 0.75 | – | 204
328.15 K, 101.3 kPa, x2 = 0.6364 | 0.09 | 410

CCCCCCCCCCCCCCCC[n+]1ccccc1.[Cl-] + OCC(O)CO + O
electrical conductivity [S/m], 100 kPa
Conditions | 293.15 K | 298.15 K | 303.15 K | 308.15 K
x1 = 3.75e-06, x2 = 0.01019 | 0.0022 | 0.0024 | 0.0025 | 0.0029
x1 = 3.92e-06, x2 = 0.02128 | 0.0022 | 0.0023 | 0.0024 | 0.0032
x1 = 4.1e-06, x2 = 0.03338 | 0.0019 | 0.0022 | 0.0026 | 0.0032
x1 = 4.29e-06, x2 = 0.04664 | 0.0019 | 0.0022 | – | 0.0032
x1 = 7.51e-06, x2 = 0.01019 | 0.004 | 0.0042 | 0.0046 | 0.0052
x1 = 7.84e-06, x2 = 0.02128 | 0.0035 | 0.0039 | 0.0043 | 0.0054
x1 = 8.2e-06, x2 = 0.03338 | 0.0031 | 0.0037 | 0.0043 | 0.0049
x1 = 8.59e-06, x2 = 0.04664 | 0.003 | 0.0036 | 0.0044 | 0.0048
x1 = 1.126e-05, x2 = 0.01019 | 0.0058 | – | 0.0065 | 0.0076
x1 = 1.176e-05, x2 = 0.02128 | – | 0.0054 | 0.0064 | 0.0077
x1 = 1.23e-05, x2 = 0.03338 | 0.0043 | 0.0052 | 0.0059 | 0.0068
x1 = 1.288e-05, x2 = 0.04664 | 0.004 | 0.005 | 0.0058 | 0.0065
x1 = 1.502e-05, x2 = 0.01019 | 0.0076 | 0.0076 | 0.0085 | –
x1 = 1.568e-05, x2 = 0.02128 | 0.0063 | – | 0.0084 | –
x1 = 1.639e-05, x2 = 0.03338 | 0.0056 | 0.0066 | 0.0077 | 0.0088
x1 = 1.718e-05, x2 = 0.04664 | 0.0052 | 0.0063 | 0.0072 | 0.0083
x1 = 1.877e-05, x2 = 0.01019 | 0.0087 | 0.0092 | – | –
x1 = 1.96e-05, x2 = 0.02128 | 0.0076 | 0.0087 | – | –
x1 = 2.049e-05, x2 = 0.03338 | 0.0069 | 0.0081 | 0.0093 | –
x1 = 2.147e-05, x2 = 0.04664 | 0.0063 | 0.0078 | 0.0086 | –
x1 = 2.253e-05, x2 = 0.01019 | 0.0094 | – | – | –
x1 = 2.351e-05, x2 = 0.02128 | 0.0083 | 0.0096 | – | –
x1 = 2.459e-05, x2 = 0.03338 | 0.0079 | 0.0089 | – | –
x1 = 2.577e-05, x2 = 0.04664 | 0.0073 | 0.0089 | 0.0097 | –
x1 = 2.743e-05, x2 = 0.02128 | 0.0089 | – | – | –
x1 = 2.869e-05, x2 = 0.03338 | 0.0086 | 0.0095 | – | –
x1 = 3.006e-05, x2 = 0.04664 | 0.0079 | 0.0095 | – | –
x1 = 3.135e-05, x2 = 0.02128 | 0.0095 | – | – | –
x1 = 3.279e-05, x2 = 0.03338 | 0.0092 | – | – | –
x1 = 3.436e-05, x2 = 0.04664 | 0.0084 | – | – | –
x1 = 3.688e-05, x2 = 0.03338 | 0.0098 | – | – | –
x1 = 3.865e-05, x2 = 0.04664 | 0.0089 | – | – | –
x1 = 4.295e-05, x2 = 0.04664 | 0.0094 | – | – | –

Source: the CheMixHub ionic liquid set
